Assay: xn = mol fraction of the nth substance listed
Settings: Liquid; for mass density: 293.15 K, Vibrating tube method; for viscosity: Concentric cylinders viscometry

Cc1ccc(C)c(C)c1 [1,2,4-trimethylbenzene] + CCCCO
mass density [kg/m3]
Settings | x2 = 0 | x2 = 0.1005 | x2 = 0.2261 | x2 = 0.2999 | x2 = 0.3966 | x2 = 0.5289 | x2 = 0.6367 | x2 = 0.7249 | x2 = 0.7977 | x2 = 0.9131
100 kPa | – | – | – | 859.9 | 854.5 | 846.5 | 839.4 | 833.1 | 827.5 | 817.8
1000 kPa | 875.7 | 870.8 | 864.3 | 860.4 | 855 | 847.1 | 840 | 833.7 | 828.1 | 818.4
5000 kPa | 878.2 | 873.4 | 867 | 863.1 | 857.8 | 849.8 | 842.8 | 836.5 | 831 | 821.3
10000 kPa | 881.4 | 876.6 | 870.2 | 866.4 | 861.1 | 853.1 | 846.1 | 839.9 | 834.3 | 824.7
20000 kPa | 887.3 | 882.6 | 876.2 | 872.5 | 867.2 | 859.4 | 852.3 | 846.2 | 840.6 | 831.1
30000 kPa | 892.9 | 888.3 | 881.9 | 878.2 | 873 | 865.2 | 858.2 | 852.1 | 846.5 | 837.1
40000 kPa | 898.2 | 893.7 | 887.4 | 883.6 | 878.5 | 870.7 | 863.7 | 857.6 | 852.1 | 842.7
50000 kPa | 903.2 | 898.7 | 892.4 | 888.8 | 883.6 | 875.8 | 868.9 | 862.8 | 857.3 | 847.9
60000 kPa | 908 | 903.5 | 897.3 | 893.6 | 888.6 | 880.8 | 873.8 | 867.8 | 862.3 | 852.9
70000 kPa | 912.6 | 908.3 | 901.9 | 898.4 | 893.2 | 885.5 | 878.6 | 872.6 | 867 | 857.7
80000 kPa | 916.9 | 912.6 | 906.4 | 902.8 | 897.6 | 890 | 883 | 877 | 871.6 | 862.3
90000 kPa | 921.1 | 916.8 | 910.6 | 907 | 901.9 | 894.2 | 887.4 | 881.3 | 875.9 | 866.6
100000 kPa | 925.1 | 920.8 | 914.7 | 911.1 | 906 | 898.4 | 891.5 | 885.4 | 880 | 870.7
120000 kPa | 932.8 | 928.6 | 922.5 | 918.9 | 913.9 | 906.2 | 899.3 | 893.3 | 887.9 | 878.7
140000 kPa | 939.9 | 935.6 | 929.8 | 926 | 921.1 | 913.5 | 906.7 | 900.7 | 895.4 | 886.1

viscosity [mPa·s], 100 kPa
Settings | x2 = 0 | x2 = 0.1002 | x2 = 0.2327 | x2 = 0.3 | x2 = 0.3969 | x2 = 0.53 | x2 = 0.637 | x2 = 0.7975 | x2 = 0.9131
303.15 K | 0.779 | 0.783 | 0.818 | 0.857 | 0.919 | 1.049 | 1.203 | 1.559 | 1.916
313.15 K | 0.692 | 0.69 | 0.716 | 0.744 | 0.787 | – | – | – | –

From the NIST ThermoML archive (doi:10.1016/j.jct.2017.03.006)
